Tested on: vibrio splendidus
Conditions: Penaeus vannamei pond
Description: 600,000 of Penaeus vannamei were raised in a pond with 1.1M depth and 1.6 hectare. […] At the next night, the pond was sterilized using the product prepared according to Example 5 with the content of iodine of 0.01 ppm.

SMILES: CSCC[C@H](N)C(=O)O.I [Example 5, methionine iodine]
- killing vibrio splendidus (content of iodine 0.01 ppm): very effective
- time after which glimmering in the pond has disappeared (sterilized at content of iodine of 0.01 ppm): 40 min
